Source: patent US10131652B2, “Pyrimidinyloxy benzene derivatives as herbicides” (E. I. DU PONT DE NEMOURS AND COMPANY, priority 2014, dated 2018)

How the values were obtained:
Type in all cases: in vivo
[1] = tested on: barnyardgrass (Echinochloa crus-galli); test: Test B pre-/postemergence plant response
Outline: (§1)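 Steps: plant seeds in loam soil–sand mix; spray soil preemergence, and in parallel spray 2–10 cm one- to two-leaf plants postemergence; hold ~10 days in greenhouse; visually rate injury against untreated controls (0 = no effect, 100 = complete control).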

corn (Zea mays) [2] = test: Test B pre-/postemergence plant response
Outline: as §1

[3] = tested on: giant foxtail (Setaria faberii); test: Test B pre-/postemergence plant response
Outline: as §1

[4] = tested on: pigweed (Amaranthus retroflexus); test: Test B pre-/postemergence plant response
Outline: as §1

[5] = tested on: wheat (Triticum aestivum); test: Test B pre-/postemergence plant response
Outline: as §1

[6] = tested on: Italian ryegrass (Lolium multiflorum); test: Test D pre-/postemergence plant response
Outline: (§2)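 Two application timings were run together: preemergence onto seeded loam–sand pots, and postemergence onto 1- to 4-leaf plants (2 to 18 cm) in peat/vermiculite medium with starter nutrients. Formulation was a non-phytotoxic solvent with surfactant. Ratings, 0 to 100, were made visually versus controls after 13 to 15 greenhouse days.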

[7] = tested on: barnyardgrass (Echinochloa crus-galli); test: Test D pre-/postemergence plant response
Outline: as §2

[8] = tested on: blackgrass (Alopecurus myosuroides); test: Test D pre-/postemergence plant response
Outline: as §2

corn (Zea mays) [9] = test: Test D pre-/postemergence plant response
Outline: as §2

[10] = tested on: galium (catchweed bedstraw, Galium aparine); test: Test D pre-/postemergence plant response
Outline: as §2

[11] = tested on: giant foxtail (Setaria faberii); test: Test D pre-/postemergence plant response
Outline: as §2

[12] = tested on: lambsquarters (Chenopodium album); test: Test D pre-/postemergence plant response
Outline: as §2

[13] = tested on: morningglory (Ipomoea coccinea); test: Test D pre-/postemergence plant response
Outline: as §2

[14] = tested on: pigweed (Amaranthus retroflexus); test: Test D pre-/postemergence plant response
Outline: as §2

[15] = tested on: ragweed (common ragweed, Ambrosia elatior); test: Test D pre-/postemergence plant response
Outline: as §2

[16] = tested on: waterhemp (common waterhemp, Amaranthus rudis); test: Test D pre-/postemergence plant response
Outline: as §2

[17] = 125 g ai/ha, postemergence, 0 to 100 scale, 0 no effect, 100 complete control
[18] = Postemergence, 500 g ai/ha, 0 to 100 scale (0 no effect, 100 complete control)
[19] = Preemergence, 125 g ai/ha, 0 to 100 scale (0 no effect, 100 complete control)
[20] = Preemergence, 500 g ai/ha, 0 to 100 scale where 0 is no effect and 100 is complete control
[21] = Postemergence, 31 g ai/ha, scale 0 to 100 (0 no effect, 100 complete control)
[22] = Postemergence, 62 g ai/ha, scale 0 to 100, 0 no effect, 100 complete control
[23] = Postemergence, 125 g ai/ha, scale 0 to 100, 0 no effect, 100 complete control
[24] = Preemergence, 16 g ai/ha, scale 0 to 100 (0 no effect, 100 complete control)
[25] = Preemergence, 31 g ai/ha, scale 0 to 100 (0 no effect, 100 complete control)
[26] = Preemergence, 62 g ai/ha, scale 0 to 100 (0 no effect, 100 complete control)

Clc1cnc(Oc2ccccc2-c2cc(C3CC3)on2)nc1 [Compound 183]
Plant response rating, Barnyardgrass [1, 17]: 40 | Plant response rating, Barnyardgrass [1, 18]: 70 | Barnyardgrass plant response rating [1, 19]: 30 | Plant response rating, Barnyardgrass [1, 20]: 80 | Plant response rating, Corn (corn (Zea mays) [2]; [17]): 10 | Plant response rating, Corn (corn (Zea mays) [2]; [18]): 30 | Plant response rating, Foxtail, Giant [3, 17]: 60 | Plant response rating, Foxtail, Giant [3, 18]: 80 | Foxtail, Giant plant response rating [3, 19]: 80 | Plant response rating, Foxtail, Giant [3, 20]: 90 | Plant response rating, Pigweed [4, 17]: 100 | Plant response rating, Pigweed [4, 18]: 100 | Pigweed plant response rating [4, 19]: 90 | Plant response rating, Pigweed [4, 20]: 100 | Plant response rating, Wheat [5, 17]: 10 | Plant response rating, Wheat [5, 18]: 60 | Plant response rating (scale 0 to 100), Ryegrass, Italian ([6]; Postemergence, 16 g ai/ha): 0 | Ryegrass, Italian plant response rating [6, 21]: 0 | Ryegrass, Italian plant response rating [6, 22]: 5 | Plant response rating, Ryegrass, Italian [6, 23]: 10 | Plant response rating (scale 0 to 100), Ryegrass, Italian ([6]; Preemergence, 125 g ai/ha): 50 | Plant response rating, Ryegrass, Italian [6, 24]: 0 | Plant response rating, Ryegrass, Italian [6, 25]: 0 | Plant response rating, Ryegrass, Italian [6, 26]: 15 | Plant response rating (scale 0 to 100), Barnyardgrass ([7]; Postemergence, 16 g ai/ha): 5 | Barnyardgrass plant response rating [7, 21]: 5 | Plant response rating, Barnyardgrass [7, 22]: 5 | Plant response rating, Barnyardgrass [7, 23]: 5 | Plant response rating (scale 0 to 100), Barnyardgrass ([7]; Preemergence, 125 g ai/ha): 90 | Plant response rating, Barnyardgrass [7, 24]: 5 | Plant response rating, Barnyardgrass [7, 25]: 5 | Plant response rating, Barnyardgrass [7, 26]: 30 | Plant response rating (scale 0 to 100), Blackgrass ([8]; Postemergence, 16 g ai/ha): 0 | Blackgrass plant response rating [8, 21]: 5 | Plant response rating, Blackgrass [8, 22]: 5 | Plant response rating, Blackgrass [8, 23]: 20 | Plant response rating (scale 0 to 100), Blackgrass ([8]; Preemergence, 125 g ai/ha): 50 | Plant response rating, Blackgrass [8, 24]: 0 | Plant response rating, Blackgrass [8, 25]: 0 | Plant response rating, Blackgrass [8, 26]: 0 | Plant response rating (scale 0 to 100), Corn (corn (Zea mays) [9]; Postemergence, 16 g ai/ha): 10 | Corn plant response rating (corn (Zea mays) [9]; [21]): 15 | Plant response rating, Corn (corn (Zea mays) [9]; [22]): 15 | Plant response rating, Corn (corn (Zea mays) [9]; [23]): 20 | Plant response rating (scale 0 to 100), Corn (corn (Zea mays) [9]; Preemergence, 125 g ai/ha): 5 | Plant response rating, Corn (corn (Zea mays) [9]; [24]): 0 | Plant response rating, Corn (corn (Zea mays) [9]; [25]): 0 | Plant response rating, Corn (corn (Zea mays) [9]; [26]): 0 | Plant response rating (scale 0 to 100), Galium ([10]; Postemergence, 16 g ai/ha): 65 | Galium plant response rating [10, 21]: 65 | Plant response rating, Galium [10, 22]: 95 | Plant response rating, Galium [10, 23]: 95 | Plant response rating (scale 0 to 100), Galium ([10]; Preemergence, 125 g ai/ha): 95 | Plant response rating, Galium [10, 24]: 50 | Plant response rating, Galium [10, 25]: 50 | Plant response rating, Galium [10, 26]: 95 | Plant response rating (scale 0 to 100), Foxtail, Giant ([11]; Postemergence, 16 g ai/ha): 5 | Foxtail, Giant plant response rating [11, 21]: 5 | Plant response rating, Foxtail, Giant [11, 22]: 5 | Plant response rating, Foxtail, Giant [11, 23]: 5 | Plant response rating (scale 0 to 100), Foxtail, Giant ([11]; Preemergence, 125 g ai/ha): 100 | Plant response rating, Foxtail, Giant [11, 24]: 5 | Plant response rating, Foxtail, Giant [11, 25]: 35 | Plant response rating, Foxtail, Giant [11, 26]: 80 | Plant response rating (scale 0 to 100), Lambsquarters ([12]; Postemergence, 16 g ai/ha): 35 | Lambsquarters plant response rating [12, 21]: 65 | Lambsquarters plant response rating [12, 22]: 65 | Plant response rating, Lambsquarters [12, 23]: 75 | Plant response rating (scale 0 to 100), Lambsquarters ([12]; Preemergence, 125 g ai/ha): 100 | Plant response rating, Lambsquarters [12, 24]: 80 | Plant response rating, Lambsquarters [12, 25]: 85 | Plant response rating, Lambsquarters [12, 26]: 90 | Plant response rating (scale 0 to 100), Morningglory ([13]; Postemergence, 16 g ai/ha): 65 | Morningglory plant response rating [13, 21]: 75 | Morningglory plant response rating [13, 22]: 90 | Plant response rating, Morningglory [13, 23]: 90 | Plant response rating (scale 0 to 100), Morningglory ([13]; Preemergence, 125 g ai/ha): 40 | Plant response rating, Morningglory [13, 24]: 0 | Plant response rating, Morningglory [13, 25]: 0 | Plant response rating, Morningglory [13, 26]: 5 | Plant response rating (scale 0 to 100), Pigweed ([14]; Postemergence, 16 g ai/ha): 55 | Pigweed plant response rating [14, 21]: 85 | Pigweed plant response rating [14, 22]: 85 | Plant response rating, Pigweed [14, 23]: 95 | Plant response rating (scale 0 to 100), Pigweed ([14]; Preemergence, 125 g ai/ha): 100 | Plant response rating, Pigweed [14, 24]: 50 | Plant response rating, Pigweed [14, 25]: 60 | Plant response rating, Pigweed [14, 26]: 100 | Plant response rating (scale 0 to 100), Ragweed ([15]; Postemergence, 16 g ai/ha): 15 | Ragweed plant response rating [15, 21]: 35 | Ragweed plant response rating [15, 22]: 60 | Plant response rating, Ragweed [15, 23]: 65 | Plant response rating (scale 0 to 100), Ragweed ([15]; Preemergence, 125 g ai/ha): 10 | Plant response rating, Ragweed [15, 24]: 0 | Plant response rating, Ragweed [15, 25]: 0 | Plant response rating, Ragweed [15, 26]: 0 | Plant response rating (scale 0 to 100), Waterhemp ([16]; Postemergence, 16 g ai/ha): 80 | Waterhemp plant response rating [16, 21]: 80 | Waterhemp plant response rating [16, 22]: 75 | Plant response rating, Waterhemp [16, 23]: 98 | Plant response rating (scale 0 to 100), Waterhemp ([16]; Preemergence, 125 g ai/ha): 100 | Plant response rating, Waterhemp [16, 24]: 10 | Plant response rating, Waterhemp [16, 25]: 100 | Plant response rating, Waterhemp [16, 26]: 95
